Data: US20250144094A1 (Erasca, Inc., priority 2021, published 2025)

What was measured:
[1] = biological target: T1, Recombinant human ULK1 (1-649) (Homo sapiens (Human), UniProt O75385); assay: ULK1 ADP Glo kinase activity assay (MBP substrate); conditions: 25° C., 40 minutes, read-out: ULK1 biochemical IC50
Experimental: Recombinant human ULK1 (1-649) protein expressed in Sf9 insect cells was obtained from SignalChem (Vancouver, BC), catalog #U01-11G. Active kinase was purified via N-terminal GST tag to >85% purity.
ADP GLO Kinase Assay Reagents were obtained from Promega Corp (Madison, WI), catalog #V9104.
MBP (myelin basic protein) substrate, bovine, purified, was obtained from Sigma (St. Louis, MO), catalog #M1891.
ULK1 inhibitor potency was determined using the luminescent ADP Glo Kinase Assay (Promega), a universal ADP detection system that measures kinase activity by quantifying the amount of ADP produced during a kinase reaction. ULK1 kinase reactions are performed in a standard 96-well microplate (20 uL reaction volume) at 25° C. for 40 minutes in the presence or absence of the test compound (12-point dilution series starting at 10 uM). Addition of MBP substrate and ATP initiates the kinase reaction.
The standard ADP Glo assay is performed in two steps. In step one, following the kinase reaction, an equal volume of ADP-Glo™ Reagent (20 uL) is added to terminate the kinase reaction and deplete the remaining ATP. In the second step, the Kinase Detection Reagent (10 uL) is added to simultaneously convert ADP to ATP and allow the newly synthesized ATP to be measured using a luciferase/luciferin reaction. Step two of the ADP Glo assay is performed in a white 384-well plate (20 uL final volume). Thirty minutes after the addition of the Detection reagent, light generated from the luciferase reaction is measured (1 second exposure) using a microplate compatible luminometer (CLARIOstar, BMG Labtech).
Inhibition of ULK1 kinase activity is determined for each test compound by comparison to DMSO only control wells. Inhibitor IC50 was calculated by plotting the change in luminescence after 30 minutes (response) versus inhibitor concentration (in log molar) then applying the four-parameter variable slope curve fit (GraphPad Prism). Inhibition of ULK1 in biochemical assay is found in Table 3.

[2] = biological target: T1, Recombinant human ULK1 (1-649); assay: ULK1 ADP Glo kinase activity assay, new method (ULKtide peptide substrate); conditions: 25° C., 40 minutes, read-out: ULK1 biochemical IC50
In short: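 Kinase activity was read as ADP production (ADP-Glo, luminescence 30 min after detection reagent) following a 40-min, 25 °C reaction of Sf9-expressed GST-ULK1 (1-649) with ULKtide substrate and ATP. Compounds ran as 12-point series starting at 10 μM; four-parameter curve fitting versus DMSO wells gave IC50.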

T1 sequence (O75385 1-649): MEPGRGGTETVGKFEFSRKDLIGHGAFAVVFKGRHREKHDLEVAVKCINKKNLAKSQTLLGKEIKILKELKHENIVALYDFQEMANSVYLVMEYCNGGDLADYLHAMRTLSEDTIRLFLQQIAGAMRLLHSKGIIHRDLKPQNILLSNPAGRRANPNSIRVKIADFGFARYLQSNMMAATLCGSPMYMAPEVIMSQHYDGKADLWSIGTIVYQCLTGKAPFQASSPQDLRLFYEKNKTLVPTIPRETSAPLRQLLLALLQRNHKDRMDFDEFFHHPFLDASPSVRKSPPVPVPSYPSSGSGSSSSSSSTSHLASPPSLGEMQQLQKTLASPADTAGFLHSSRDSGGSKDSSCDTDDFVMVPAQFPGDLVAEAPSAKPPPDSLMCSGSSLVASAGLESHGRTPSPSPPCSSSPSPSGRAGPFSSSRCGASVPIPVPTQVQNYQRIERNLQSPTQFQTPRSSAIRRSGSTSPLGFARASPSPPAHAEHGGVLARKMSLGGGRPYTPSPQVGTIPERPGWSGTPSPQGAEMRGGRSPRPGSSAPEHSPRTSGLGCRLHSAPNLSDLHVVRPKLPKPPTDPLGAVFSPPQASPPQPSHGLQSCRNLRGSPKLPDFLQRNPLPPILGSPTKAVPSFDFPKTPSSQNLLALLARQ

SMILES | IC50 [1] [nM] | IC50 [2] [nM]
NC(=O)c1csc(-c2nc(Nc3cc4c(cc3Cl)CNCC4)ncc2C(F)(F)F)c1 [Example 1, 5-(2-((7-chloro-1,2,3,4-tetrahydroisoquinolin-6-yl)amino)-5-(trifluoromethyl)pyrimidin-4-yl)thiophene-3-carboxamide] | ≤ 10 | 
CN(C)C(=O)c1csc(-c2nc(Nc3cc4c(cc3Cl)CNCC4)ncc2C(F)(F)F)c1 [Example 2, 5-(2-((7-chloro-1,2,3,4-tetrahydroisoquinolin-6-yl)amino)-5-(trifluoromethyl)pyrimidin-4-yl)-N,N-dimethylthiophene-3-carboxamide] | 10 to 50 | 
CN(C)C(=O)c1ccc(-c2nc(Nc3cc4c(cc3Cl)CNCC4)ncc2C(F)(F)F)s1 [Example 3, 5-(2-((7-chloro-1,2,3,4-tetrahydroisoquinolin-6-yl)amino)-5-(trifluoromethyl)pyrimidin-4-yl)-N,N-dimethylthiophene-2-carboxamide] | ≤ 10 | 
O=C1NCCc2sc(-c3nc(Nc4cc5c(cc4Cl)CNCC5)ncc3C(F)(F)F)cc21 [Example 4, 2-(2-((7-chloro-1,2,3,4-tetrahydroisoquinolin-6-yl)amino)-5-(trifluoromethyl)pyrimidin-4-yl)-6,7-dihydrothieno[3,2-c]pyridin-4(5H)-one] | ≤ 10 | 
NC(=O)c1csc(-c2nc(Nc3cc4c(cc3Cl)CN(C3CNC3)CC4)ncc2C(F)(F)F)c1 [Example 5, 5-(2-((2-(azetidin-3-yl)-7-chloro-1,2,3,4-tetrahydroisoquinolin-6-yl)amino)-5-(trifluoromethyl)pyrimidin-4-yl)thiophene-3-carboxamide] | ≤ 10 | 
CNC(=O)c1csc(-c2nc(Nc3cc4c(cc3Cl)CNCC4)ncc2C(F)(F)F)c1 [Example 6, 5-(2-((7-chloro-1,2,3,4-tetrahydroisoquinolin-6-yl)amino)-5-(trifluoromethyl)pyrimidin-4-yl)-N-methylthiophene-3-carboxamide] | 50 to 100 | 
NC(=O)c1csc(-c2nc(Nc3cc4c(cc3Cl)CNC4)ncc2C(F)(F)F)c1 [Example 7, 5-(2-((6-chloroisoindolin-5-yl)amino)-5-(trifluoromethyl)pyrimidin-4-yl)thiophene-3-carboxamide] | ≤ 10 | 
FC(F)(F)c1cnc(Nc2cc3c(cc2Cl)CNCC3)nc1-c1cc(C2=NCCO2)cs1 [Example 8, 7-chloro-N-(4-(4-(4,5-dihydrooxazol-2-yl)thiophen-2-yl)-5-(trifluoromethyl)pyrimidin-2-yl)-1,2,3,4-tetrahydroisoquinolin-6-amine] | 10 to 50 | 
CCc1cc2c(cc1Nc1ncc(C(F)(F)F)c(-c3cc(C(N)=O)cs3)n1)CCNC2 [Example 9, 5-(2-((7-ethyl-1,2,3,4-tetrahydroisoquinolin-6-yl)amino)-5-(trifluoromethyl)pyrimidin-4-yl)thiophene-3-carboxamide] | ≤ 10 | 
NC(=O)c1csc(-c2nc(Nc3cc4c(cc3C3CC3)CNCC4)ncc2C(F)(F)F)c1 [Example 10, 5-(2-((7-cyclopropyl-1,2,3,4-tetrahydroisoquinolin-6-yl)amino)-5-(trifluoromethyl)pyrimidin-4-yl)thiophene-3-carboxamide] | ≤ 10 | 
CN1CC(N2CCc3cc(Nc4ncc(C(F)(F)F)c(-c5cc(C(N)=O)cs5)n4)c(Cl)cc3C2)C1 [Example 11, 5-(2-((7-chloro-2-(1-methylazetidin-3-yl)-1,2,3,4-tetrahydroisoquinolin-6-yl)amino)-5-(trifluoromethyl)pyrimidin-4-yl)thiophene-3-carboxamide] | 10 to 50 | 
CN1CC(N2Cc3cc(Cl)c(Nc4ncc(C(F)(F)F)c(-c5cc(C(N)=O)cs5)n4)cc3C2)C1 [Example 12, 5-(2-((6-chloro-2-(1-methylazetidin-3-yl)isoindolin-5-yl)amino)-5-(trifluoromethyl)pyrimidin-4-yl)thiophene-3-carboxamide] | ≤ 10 | 
CCc1cc2c(cc1Nc1ncc(C(F)(F)F)c(-c3cc(C(N)=O)cs3)n1)CCN(C)C2 [Example 13, 5-(2-((7-ethyl-2-methyl-1,2,3,4-tetrahydroisoquinolin-6-yl)amino)-5-(trifluoromethyl)pyrimidin-4-yl)thiophene-3-carboxamide] | ≤ 10 | 
CN1CCc2cc(Nc3ncc(C(F)(F)F)c(-c4cc(C(N)=O)cs4)n3)c(C3CC3)cc2C1 [Example 14, 5-(2-((7-cyclopropyl-2-methyl-1,2,3,4-tetrahydroisoquinolin-6-yl)amino)-5-(trifluoromethyl)pyrimidin-4-yl)thiophene-3-carboxamide] | ≤ 10 | 
CN1CCS(=O)(=O)c2cc(-c3nc(Nc4ccc(N5C[C@H]6C[C@@H]5CN6)cc4C4CC4)ncc3C(F)(F)F)sc2C1=O [Example 379, 7-(2-((4-((1R,4R)-2,5-diazabicyclo[2.2.1]heptan-2-yl)-2-cyclopropylphenyl)amino)-5-(trifluoromethyl)pyrimidin-4-yl)-4-methyl-3,4-dihydrothieno[2,3-f][1,4]thiazepin-5(2H)-one 1,1-dioxide] |  | ≤ 5
C[C@H]1CN(c2ccc(Nc3ncc(C(F)(F)F)c(-c4cc5c(s4)C(=O)N(C)CCS5(=O)=O)n3)c(C3CC3)c2)CCN1 [Example 380, (S)-7-(2-((2-cyclopropyl-4-(3-methylpiperazin-1-yl)phenyl)amino)-5-(trifluoromethyl)pyrimidin-4-yl)-4-methyl-3,4-dihydrothieno[2,3-f][1,4]thiazepin-5(2H)-one 1,1-dioxide] |  | ≤ 5
CN1CCS(=O)(=O)c2cc(-c3nc(Nc4cnc(N5C[C@H]6C[C@@H]5CN6)cc4C4CC4)ncc3C(F)(F)F)sc2C1=O [Example 382, 7-(2-((6-((1R,4R)-2,5-diazabicyclo[2.2.1]heptan-2-yl)-4-cyclopropylpyridin-3-yl)amino)-5-(trifluoromethyl)pyrimidin-4-yl)-4-methyl-3,4-dihydrothieno[2,3-f][1,4]thiazepin-5(2H)-one 1,1-dioxide] |  | ≤ 5
CN1CCS(=O)(=O)c2cc(-c3nc(Nc4cnc(N5CC6CC(C5)N6)cc4C4CC4)ncc3C(F)(F)F)sc2C1=O [Example 383, 7-(2-((6-(3,6-diazabicyclo[3.1.1]heptan-3-yl)-4-cyclopropylpyridin-3-yl)amino)-5-(trifluoromethyl)pyrimidin-4-yl)-4-methyl-3,4-dihydrothieno[2,3-f][1,4]thiazepin-5(2H)-one 1,1-dioxide] |  | ≤ 5
O=C1c2sc(-c3nc(Nc4cnc(N5CC6CC(C5)N6)cc4C4CC4)ncc3C(F)(F)F)cc2S(=O)(=O)CCN1C1COC1 [Example 384, 7-(2-((6-(3,6-diazabicyclo[3.1.1]heptan-3-yl)-4-cyclopropylpyridin-3-yl)amino)-5-(trifluoromethyl)pyrimidin-4-yl)-4-(oxetan-3-yl)-3,4-dihydrothieno[2,3-f][1,4]thiazepin-5(2H)-one 1,1-dioxide] |  | ≤ 5
CCc1cc(N2CCN[C@H](C)C2)ccc1Nc1ncc(C(F)(F)F)c(-c2cc3c(s2)C(=O)N(C2COC2)CCS3(=O)=O)n1 [Example 406, (R)-7-(2-((2-ethyl-4-(3-methylpiperazin-1-yl)phenyl)amino)-5-(trifluoromethyl)pyrimidin-4-yl)-4-(oxetan-3-yl)-3,4-dihydrothieno[2,3-f][1,4]thiazepin-5(2H)-one 1,1-dioxide] |  | ≤ 5
CCc1cc(N2CCN[C@@H](CO)C2)ccc1Nc1ncc(C(F)(F)F)c(-c2cc3c(s2)C(=O)N(C2CC2)CCS3(=O)=O)n1 [Example 407, (R)-4-cyclopropyl-7-(2-((2-ethyl-4-(3-(hydroxymethyl)piperazin-1-yl)phenyl)amino)-5-(trifluoromethyl)pyrimidin-4-yl)-3,4-dihydrothieno[2,3-f][1,4]thiazepin-5(2H)-one 1,1-dioxide] |  | ≤ 5
CCc1cc(N2CCN(C)[C@@H](CO)C2)ccc1Nc1ncc(C(F)(F)F)c(-c2cc3c(s2)C(=O)N(C2CC2)CCS3(=O)=O)n1 [Example 408, (R)-4-cyclopropyl-7-(2-((2-ethyl-4-(3-(hydroxymethyl)-4-methylpiperazin-1-yl)phenyl)amino)-5-(trifluoromethyl)pyrimidin-4-yl)-3,4-dihydrothieno[2,3-f][1,4]thiazepin-5(2H)-one 1,1-dioxide] |  | ≤ 5
CCc1cc(N2CCN(C)[C@@H](CO)C2)ccc1Nc1ncc(C(F)(F)F)c(-c2cc3c(s2)C(=O)N(C2COC2)CCS3(=O)=O)n1 [Example 409, (R)-7-(2-((2-Ethyl-4-(3-(hydroxymethyl)-4-methylpiperazin-1-yl)phenyl)amino)-5-(trifluoromethyl)pyrimidin-4-yl)-4-(oxetan-3-yl)-3,4-dihydrothieno[2,3-f][1,4]thiazepin-5(2H)-one 1,1-dioxide] |  | ≤ 5
